Reference: patent publication US4029799A, “Certain analgesically active substituted benzyl pyridine compounds” (Laboratorios Made, S.A., priority 1975, dated 1977)

Columns and labels:
[1] = system: female albino I.C.R. Swiss mice; assay: Analgesic activity, Hot Plate Test at 55° C.; assay type: in vivo; settings: for Jump-off time: 30 minutes after administration, average ± standard mean error, control 77 ± 9.272
Method: the analgesic activity of 2-(3,4,5-trimethoxybenzyl)-3,4-dimethylpyridine compound (I) was investigated in female albino I.C.R. Swiss mice weighing 24± 2 g. For this the Hot Plate Test was used at 55° C. 4 groups of mice each comprising 10 animals, were assembled. The distribution of the groups was according to the following scheme:-
Group 1-- Control - 0.2 ml of distilled H2 O
Group 2-- Compound I-0.2 ml of a solution of 2-(3,4,5-trimethoxybenzyl)-3,4-dimethylpyridine (I), 3 mg/ml.
Group 3-- Compound I-0.2 ml of a solution of 2-(3,4,5-trimethoxybenzyl)-3,4-dimethylpyridine (I), 6 mg/ml.
Group 4-- Dextropropoxyphene - 0.2 ml of a solution of dextropropoxyphene, 6 mg/ml.
The products were injected intraperitoneally, and the measurements of analgesia were made 30 minutes after the administration of the drugs. Note was taken of the time taken for an animal to jump off the hot plate.

I.C.R. Swiss mice = assay: Acute toxicity (i.p.), method of Lichfield and Wilcoxon; assay type: in vivo, both sexes
Method: (§1) acute toxicity studies were carried out in I.C.R. Swiss mice weighing 24± 2 g, of both sexes. The products were administered intraperitoneally (i.p.). Acute toxicity was calculated by the method of Lichfield and Wilcoxon.

[2] = as above; assay type: in vivo, I.C.R. Swiss mice, both sexes; settings: mouse, in vivo, ip, mice, read-out: Lethal dose 50 (LD50)
Method: as §1

Row | Compound | Jump-off time ([1]; 50 mg/kg i.p.) [s] | toxicity compared with d-propoxyphene (I.C.R. Swiss mice) | LD50 [2] [mg/kg] | Jump-off time ([1]; 25 mg/kg i.p.) [s] | Significance (jump-off time) ([1]; 25 mg/kg i.p., N.S. or p value) | analgesic activity compared with d-propoxyphene ([1]; for equal doses, Hot Plate Test) | therapeutic index compared with dextropropoxyphene ([1]; from analgesia and acute toxicity in mice)
1 | CCC(=O)O[C@](Cc1ccccc1)(c1ccccc1)[C@H](C)CN(C)C [Dextropropoxyphene, reference compound] | 102.4 ± 10.302 | – | – | – | – | – | –
2 | COc1cc(Cc2nccc(C)c2C)cc(OC)c1OC [Compound I, 2-(3,4,5-trimethoxybenzyl)-3,4-dimethylpyridine] | 133.5 ± 12.581 | less toxic | 250 | 77 ± 8.203 | N.S. | more analgesic than d-propoxyphene | greater than that of dextropropoxyphene
